Columns and labels:
[1] = system: Diet-Induced Obese (DIO) mice; test: Assessment of D5D inhibitor in Diet-Induced Obese (DIO) mice; format: in vivo, Male C57BL/6J DIO mice; conditions: for Fat mass / Lean mass: day 22, EchoMRI; for Blood glucose: day 25, 4 hour fasted; for AA / Cholesterol / DGLA / Insulin / LDL cholesterol / Triglycerides: day 25, 4 hour fasted plasma; for Body weight / Liver weights / epididymal WAT / inguinal WAT: day 27
Text: Assessment of D5D Inhibitor in Diet-Induced Obese (DIO) Mice
Male C57BL/6J DIO mice (Jackson Laboratories, Stock No.: 380050) were fed high-fat diet (Research Diets, Inc., D12492) for 12 weeks. All animals were given free access to water and chow. Animals were acclimated to per os dosing for 3 days prior to the start of the experiment. Animals were randomized on body weight, fat mass, lean mass, and blood glucose concentrations in to groups of 8 to 10 animals per group. Animals were twice daily dosed per os with either: vehicle (2% hydroxypropyl methylcellulose and 1% tween 80 in water), Example 2 at 10 mg/kg, or 30 mg/kg (formulated in 2% hydroxypropyl methylcellulose and 1% tween 80 in water), or Example 45 at 3 mg/kg, or 10 mg/kg (formulated in 2% hydroxypropyl methylcellulose and 1% tween 80 in water). Three-day average (Example 2) or daily average (Example 45) food consumption was measured at the indicated times as shown in Table 17 and Table 18. Body composition (EchoMRI) was determined on day 78 for Example 2 and day 22 for Example 45. For Example 2, a non-fasted blood collection was performed on day 81; blood glucose was immediately measured, and plasma samples created from the remaining blood and used to measure DGLA and AA concentrations. On day 84, a 4-hour fasted blood collection was performed, and plasma samples were created from the blood and used to measure cholesterol, triglycerides, low-density lipoprotein (LDL) cholesterol, insulin, and adipokine (adiponectin, leptin, and resistin) levels. For Example 45, 4 hour fasted blood samples were collected on day 25 and blood glucose was measured immediately and the plasma samples created from the remaining blood were used to measure cholesterol, triglycerides, LDL cholesterol, insulin, DGLA and AA concentration. At the end of the studies, liver, epididymal white adipose tissue, inguinal white adipose tissue, mesenteric (only Example 2) white adipose tissue weights were recorded. Data was analyzed using GraphPad Prism v 7.04.
The D5D inhibitor dose-dependently led to weight loss over the course of the experiment (Table 17 and Table 18) compared to vehicle controls. Consistently fat mass was reduced, along with lower inguinal, epididymal and mesenteric white adipose tissue (WAT) weights at necropsy. Blood glucose and plasma insulin levels were both reduced by the D5D inhibitor, along with reductions in plasma cholesterol and triglycerides. Evidence of target engagement was established by observing increases in plasma DGLA and decreases in plasma AA.

[2] = molecular target: T1, Delta-5-Desaturase (D5D), membrane preparations of D5D-overexpressing HEK293 6E cells (Homo sapiens, UniProt O60427); test: In vitro measurement of Delta-5-Desaturase inhibitory activity using DGLA-CoA and Arachidonyl-CoA mass spectrometric assays; format: biochemical; conditions: D5D membrane 10 μg/mL, one-hour incubation, average of at least two independent runs
T1 construct: expressed in transfected cells; host or cells: HEK293 6E cells (membrane preparation)
Summary of the method: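 Membranes from D5D-overexpressing HEK293 6E cells (10 μg/mL final) in pH 7.5 Tris buffer with MgCl2, octyl glucoside and TCEP were run with substrate solution holding 0.01 mM DGLA, NADH, ATP and CoA for 1 h at ambient temperature. Acetonitrile quench; DGLA-CoA and arachidonyl-CoA measured by RapidFire MRM-MS; 4-parameter IC50, ≥2 runs averaged.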

[3] = Example 45 3 mg/kg twice daily per os
[4] = Example 45 10 mg/kg twice daily per os

T1 sequence (O60427 whole entry, species assumed): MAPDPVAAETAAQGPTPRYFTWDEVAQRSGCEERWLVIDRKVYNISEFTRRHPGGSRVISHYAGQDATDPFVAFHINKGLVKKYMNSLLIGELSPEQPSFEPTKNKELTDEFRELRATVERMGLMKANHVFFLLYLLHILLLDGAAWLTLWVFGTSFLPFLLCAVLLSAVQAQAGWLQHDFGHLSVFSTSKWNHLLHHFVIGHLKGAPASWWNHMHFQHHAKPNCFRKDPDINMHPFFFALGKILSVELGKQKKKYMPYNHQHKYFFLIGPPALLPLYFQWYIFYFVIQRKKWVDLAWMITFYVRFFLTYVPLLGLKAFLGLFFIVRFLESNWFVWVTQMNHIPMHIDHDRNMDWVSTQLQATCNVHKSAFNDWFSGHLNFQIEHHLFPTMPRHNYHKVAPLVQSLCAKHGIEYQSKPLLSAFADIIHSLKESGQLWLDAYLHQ

## O=c1c(-c2cnn(CC(F)(F)C(F)(F)F)c2)c(C(F)(F)F)nc2sc(CO)nn12 [Example 45, 2-(hydroxymethyl)-6-[1-(2,2,3,3,3-pentafluoropropyl)-1H-pyrazol-4-yl]-7-(trifluoromethyl)-5H-[1,3,4]thiadiazolo[3,2-a]pyrimidin-5-one]
[1]; Example 45 3 mg/kg twice daily per os, day 0, daily average
  Food consumption: 2.5 ± 0.3 g/day
[1]; Example 45 3 mg/kg twice daily per os, day 7, daily average
  Food consumption: 3.0 ± 0.3 g/day
[1]; Example 45 3 mg/kg twice daily per os, day 14, daily average
  Food consumption: 2.7 ± 0.3 g/day
[1]; Example 45 3 mg/kg twice daily per os, day 21, daily average
  Food consumption: 2.7 ± 0.2 g/day
[1]; [3]
  Fat mass: 19.7 ± 2.2 g
  Lean mass: 27.4 ± 1.5 g
  Blood glucose: 176.1 ± 9.4 mg/dL
  AA: 88.6 ± 18.9 µg/mL
  Cholesterol: 160.4 ± 43.7 mg/dL
  DGLA: 286.9 ± 47.7 µg/mL
  Insulin: 7.2 ± 1.8 ng/mL
  LDL cholesterol: 130.6 ± 25.1 mg/dL
  Triglycerides: 32.6 ± 5.2 mg/dL
  Body weight: 47.8 ± 2.8 g
  Liver weights: 2.6 ± 0.4 g
  epididymal WAT: 1.8 ± 0.3 g
  inguinal WAT: 2.2 ± 0.5 g
[1]; Example 45 3 mg/kg twice daily per os, day 27, daily average
  Food consumption: 2.5 ± 0.2 g/day
[1]; Example 45 10 mg/kg twice daily per os, day 0, daily average
  Food consumption: 2.6 ± 0.3 g/day
[1]; Example 45 10 mg/kg twice daily per os, day 7, daily average
  Food consumption: 2.6 ± 0.3 g/day
[1]; Example 45 10 mg/kg twice daily per os, day 14, daily average
  Food consumption: 2.4 ± 0.2 g/day
[1]; Example 45 10 mg/kg twice daily per os, day 21, daily average
  Food consumption: 2.5 ± 0.2 g/day
[1]; [4]
  Fat mass: 16.9 ± 2.3 g
  Lean mass: 26.7 ± 1.1 g
  Blood glucose: 156.1 mg/dL
  AA: 38.2 ± 3.6 µg/mL
  Cholesterol: 162.8 mg/dL
  DGLA: 212.6 µg/mL
  Insulin: 5.2 ± 0.7 ng/mL
  LDL cholesterol: 129.0 mg/dL
  Triglycerides: 26.3 ± 5.5 mg/dL
  Body weight: 43.8 ± 3.1 g
  Liver weights: 2.6 ± 0.5 g
  epididymal WAT: 1.7 ± 0.3 g
  inguinal WAT: 1.9 ± 0.2 g
[1]; Example 45 10 mg/kg twice daily per os, day 27, daily average
  Food consumption: 2.4 ± 0.2 g/day
[2]
  IC50: 0.0211 µM

## Cc1cccc(-n2c(C)cn3c(=O)c(-c4cnn(CC(F)(F)C(F)(F)F)c4)c(C(F)(F)F)nc23)n1 [Example 96, 2-methyl-1-(6-methylpyridin-2-yl)-6-[1-(2,2,3,3,3-pentafluoropropyl)-1H-pyrazol-4-yl]-7-(trifluoromethyl)-1H,5H-imidazo[1,2-a]pyrimidin-5-one]
[2]
  IC50: 0.0194 µM

## Cc1cn2c(=O)c(-c3cnn(CC(F)(F)C(F)(F)F)c3)c(C(F)(F)F)nc2n1-c1cnn(C)c1 [Example 97, 2-methyl-1-(1-methyl-1H-pyrazol-4-yl)-6-[1-(2,2,3,3,3-pentafluoropropyl)-1H-pyrazol-4-yl]-7-(trifluoromethyl)-1H,5H-imidazo[1,2-a]pyrimidin-5-one]
[2]
  IC50: 0.0293 µM

## Cc1cn2c(=O)c(-c3cnn(CC(F)(F)C(F)(F)F)c3)c(C(F)(F)F)nc2n1-c1cccnc1 [Example 98, 2-methyl-6-[1-(2,2,3,3,3-pentafluoropropyl)-1H-pyrazol-4-yl]-1-(pyridin-3-yl)-7-(trifluoromethyl)-1H,5H-imidazo[1,2-a]pyrimidin-5-one]
[2]
  IC50: 2.4 µM

## Cc1cn2c(=O)c(-c3cnn(CC(F)(F)C(F)(F)F)c3)c(C(F)(F)F)nc2n1-c1cncnc1 [Example 99, 2-methyl-6-[1-(2,2,3,3,3-pentafluoropropyl)-1H-pyrazol-4-yl]-1-(pyrimidin-5-yl)-7-(trifluoromethyl)-1H,5H-imidazo[1,2-a]pyrimidin-5-one]
[2]
  IC50: 36.1 µM

## Cc1cn2c(=O)c(-c3cnn(CC(F)(F)C(F)(F)F)c3)c(C(F)(F)F)nc2n1-c1ccccc1 [Example 100, 2-methyl-6-[1-(2,2,3,3,3-pentafluoropropyl)-1H-pyrazol-4-yl]-1-phenyl-7-(trifluoromethyl)-1H,5H-imidazo[1,2-a]pyrimidin-5-one]
[2]
  IC50: 4.12 µM

## Cc1cn2c(=O)c(-c3cnn(CC(F)(F)C(F)(F)F)c3)c(C(F)(F)F)nc2n1-c1cccc(Cl)n1 [Example 101, 1-(6-chloropyridin-2-yl)-2-methyl-6-[1-(2,2,3,3,3-pentafluoropropyl)-1H-pyrazol-4-yl]-7-(trifluoromethyl)-1H,5H-imidazo[1,2-a]pyrimidin-5-one]
[2]
  IC50: 0.397 µM

## Cc1cn2c(=O)c(-c3cnn(CC(F)(F)C(F)(F)F)c3)c(C(F)(F)F)nc2n1-c1ccncc1 [Example 102, 2-methyl-6-[1-(2,2,3,3,3-pentafluoropropyl)-1H-pyrazol-4-yl]-1-(pyridin-4-yl)-7-(trifluoromethyl)-1H,5H-imidazo[1,2-a]pyrimidin-5-one]
[2]
  IC50: 8.4 µM

## Cc1cn2c(=O)c(-c3cnn(CC(F)(F)C(F)(F)F)c3)c(C(F)(F)F)nc2n1-c1cn[nH]c1 [Example 103, 2-methyl-6-[1-(2,2,3,3,3-pentafluoropropyl)-1H-pyrazol-4-yl]-1-(1H-pyrazol-4-yl)-7-(trifluoromethyl)-1H,5H-imidazo[1,2-a]pyrimidin-5-one]
[2]
  IC50: 0.301 µM

## O=c1c(-c2cnn(CC(F)(F)C(F)(F)F)c2)c(C(F)(F)F)nc2sc(CF)nn12 [Example 104, 2-(fluoromethyl)-6-[1-(2,2,3,3,3-pentafluoropropyl)-1H-pyrazol-4-yl]-7-(trifluoromethyl)-5H-[1,3,4]thiadiazolo[3,2-a]pyrimidin-5-one]
[2]
  IC50: 0.1 µM

## CN(C)Cc1nn2c(=O)c(-c3cnn(CC(F)(F)C(F)(F)F)c3)c(C(F)(F)F)nc2s1 [Example 105, 2-[(dimethylamino)methyl]-6-[1-(2,2,3,3,3-pentafluoropropyl)-1H-pyrazol-4-yl]-7-(trifluoromethyl)-5H-[1,3,4]thiadiazolo[3,2-a]pyrimidin-5-one]
[2]
  IC50: 10.5 µM

## CNCc1nn2c(=O)c(-c3cnn(CC(F)(F)C(F)(F)F)c3)c(C(F)(F)F)nc2s1 [Example 106, 2-[(methylamino)methyl]-6-[1-(2,2,3,3,3-pentafluoropropyl)-1H-pyrazol-4-yl]-7-(trifluoromethyl)-5H-[1,3,4]thiadiazolo[3,2-a]pyrimidin-5-one]
[2]
  IC50: 61.5 µM
